Source: PMC3502552, “A dimerized urea-based inhibitor of the prostate-specific membrane antigen for ^68Ga-PET imaging of prostate cancer” (EJNMMI Research, 2012)

What was measured:
PSMA+ LNCaP cells = test: Cell binding and internalization in LNCaP cells; assay type: cell-based, human
Procedure: (§1) Internalization experiments were performed as previously described. Briefly, 10^5 LNCaP or PC-3 cells were seeded in poly-L-lysine-coated 24-well cell culture plates 24 h before incubation. After washing with PBS, the cells were incubated with the radiolabeled compounds ^68Ga]6 or ^68Ga]7 (25 nM final concentration) for 45 min at 37°C and at 4°C, respectively. To determine specific cellular uptake, cells were blocked with 2-(phosphonomethyl)-pentanedioic acid (PMPA, Axxora, Loerrach, Germany) to a final concentration of 100 μM. Cellular uptake was terminated by washing four times with 1 mL of ice-cold PBS. To remove surface-bound radioactivity, cells were incubated twice with 0.5 mL glycine-HCl in PBS (50 mM, pH = 2.8) for 5 min. The cells were washed with 1 mL of ice-cold PBS and lysed using 0.3 N NaOH (0.5 mL). The surface-bound and the internalized fractions were measured in a gamma counter.

PSMA− PC-3 cells = test: Cell binding and internalization in PC-3 cells; assay type: cell-based, human; settings: 25 nM, 45 min
Procedure: as §1

LNCaP cells = test: Cell surface retention (efflux); assay type: cell-based, human; settings: 2-PMPA added to avoid rebinding, compared to monomer
Procedure: The determination of cell surface retention was performed in accordance to a previously described experiment. Briefly, 5 × 10^6 LNCaP cells in a 320-μL RPMI 1640 medium were incubated with ^68Ga]6 or ^68Ga]7 (25 nM final concentration), respectively, for 45 min at 37°C. Cells were washed three times and resuspended in the RPMI 1640 medium (320 μL); samples were taken as a control for total cell-associated activity (cell surface bound and internalized). Subsequently, 0.5 μL of a 2-PMPA solution (100 mmol/L in DMSO) was added to avoid rebinding and to enhance the competitive pressure on releasing the radioactivity from the cell surface. At indicated time points, 10-μL samples were taken and transferred on top of a 400-μL microcentrifuge tube containing 350 μL of a 75:25 mixture of silicon oil (density 1.05; Aldrich), and mineral oil (density 0.872; Acros, Thermo Fisher Scientific). Subsequently, the tubes were centrifuged at 12,000 rpm for 2 min to separate cellular radioactivity and radioactivity solved in the medium. After freezing in liquid nitrogen, the bottom tips containing the cell pellet were cut off. The cell pellets and the medium were measured in a gamma counter to determine cellular uptake
(1) %uptake=100×cpminpellet/cpminpellet+cpminsupernatant

LNCaP tumor xenografts = test: Biodistribution in mice bearing LNCaP tumor xenografts; assay type: in vivo, BALB/c nu/nu mice; settings: 1 h post-injection
Procedure: (§2) Male BALB/c nu/nu mice of 7 to 8 weeks old (Charles River Laboratories, Wilmington, MA, USA) were subcutaneously inoculated into the right trunk with 5 × 10^6 cells of either LNCaP or PC-3 (both in 50% Matrigel; Becton Dickinson, Heidelberg, Germany). The tumors were allowed to grow for 3 to 4 weeks until approximately 1 cm^3 in size. The ^68Ga-radiolabeled compounds were injected into a tail vein (1 to 2 MBq/mouse; 0.1 to 0.2 nmol). At 1 h after injection, the animals were sacrificed. Organs of interest were dissected, blotted dry, and weighed. The radioactivity was measured using a gamma counter and calculated as percentage injected dose per gram (% ID/g).

PSMA− PC-3 tumor = test: Biodistribution in PC-3 tumor-bearing mice; assay type: in vivo, BALB/c nu/nu mice; settings: 1 h post-injection; PSMA− PC-3 tumor-bearing mice
Procedure: as §2, with “At 1 h after injection, the animals were sacrificed.” left out

[1] = Radiochemical stability in human serum and PBS; assay type: in vitro ADME; settings: 2 h incubation at 37°C
Procedure: (§3) The radiochemical stability was analyzed in both phosphate-buffered saline (PBS) and human serum. After 2 h of incubation at 37°C, an equal volume of CH3CN was added to the samples to precipitate serum proteins. Subsequently, the samples were centrifuged for 5 min at 13,000 rpm. Aliquots of the supernatant and the PBS sample were analyzed via RP-HPLC. In addition, serum samples were run on a Superdex 75 GL 5/150 gel filtration column (GE Healthcare, Munich, Germany) to analyze potential protein binding (PBS pH 7 as eluent).

apo-transferrin = apo-transferrin (Homo sapiens, UniProt P02787); test: Complex stability against human transferrin / protein binding (size exclusion chromatography); assay type: in vitro ADME; settings: after incubation in human serum or in the presence of apo-transferrin; 2 h, 37°C
apo-transferrin, sequence (P02787 20-698): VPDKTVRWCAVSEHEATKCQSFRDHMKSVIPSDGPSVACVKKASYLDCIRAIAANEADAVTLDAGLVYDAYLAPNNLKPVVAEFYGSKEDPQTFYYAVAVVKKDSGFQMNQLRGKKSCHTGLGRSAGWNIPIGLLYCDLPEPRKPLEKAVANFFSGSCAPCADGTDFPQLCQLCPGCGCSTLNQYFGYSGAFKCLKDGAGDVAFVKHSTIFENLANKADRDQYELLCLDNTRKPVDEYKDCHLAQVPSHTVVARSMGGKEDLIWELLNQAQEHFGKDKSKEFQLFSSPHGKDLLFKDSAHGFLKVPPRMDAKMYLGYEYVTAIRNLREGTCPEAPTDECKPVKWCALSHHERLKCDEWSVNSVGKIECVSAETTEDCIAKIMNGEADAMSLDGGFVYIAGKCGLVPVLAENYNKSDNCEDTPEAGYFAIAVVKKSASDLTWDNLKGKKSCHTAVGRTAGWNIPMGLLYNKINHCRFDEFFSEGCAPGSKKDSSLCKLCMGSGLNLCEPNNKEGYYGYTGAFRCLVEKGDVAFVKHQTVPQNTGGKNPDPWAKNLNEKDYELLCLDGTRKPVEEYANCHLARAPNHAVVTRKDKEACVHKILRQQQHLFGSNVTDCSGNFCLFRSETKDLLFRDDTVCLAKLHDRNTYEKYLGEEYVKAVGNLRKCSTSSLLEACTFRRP
Procedure: as §3, with “eluent). To analyze the complex stability against human transferrin, a 400-μL aliquot was added to 250 μg of apo-transferrin in PBS at pH 7 and incubated at 37°C (water bath) for 2 h. The complex stability was determined using a Superdex 75 GL 5/150 short column with PBS pH 7 as eluent.” for “eluent).”

LNCaP tumor xenograft = test: Dynamic microPET in mice bearing LNCaP tumor xenografts; assay type: in vivo; settings: L-isomer versus D-isomer
Procedure: For the microPET studies, 10 to 25 MBq of either [^68Ga]6 or [^68Ga]7 in a volume of 0.15 mL (approximately 0.5 nmol) was injected via a lateral tail vein into mice bearing LNCaP tumor xenografts. The anesthetized animals (2% sevoflurane, Abbott, Wiesbaden, Germany) were placed in prone position into an Inveon small animal PET scanner (Siemens, Knoxville, TN, USA) to perform a 50-min dynamic microPET scan starting at 1 min post-injection followed by a 20-min static scan. All animal experiments complied with the current laws of the Federal Republic of Germany.

[2] = i.v. tail vein, 0.1 to 0.2 nmol

O=C(O)CC[C@H](NC(=O)N[C@@H](CCCCNC(=O)CCCCCNC(=O)CCc1ccc(O)c(CN(CCN(CC(=O)O)Cc2cc(CCC(=O)NCCCCCC(=O)NCCCC[C@H](NC(=O)N[C@@H](CCC(=O)O)C(=O)O)C(=O)O)ccc2O)CC(=O)O)c1)C(=O)O)C(=O)O [[^68Ga]7, metal not drawn]
Internalized fraction (PSMA+ LNCaP cells; 25 nM, 45 min): approximately 25% | Cellular uptake (PSMA+ LNCaP cells; 25 nM, 45 min, percentage of applied radioactivity bound to 10^6 cells): 40.04 ± 6.09% | Uptake in the presence of 2-PMPA (PSMA+ LNCaP cells; 100 μM 2-PMPA): blocked | Binding to PSMA− PC-3 cells (PSMA− PC-3 cells): no binding | Cell surface retention (efflux experiment) (LNCaP cells): prolonged cell surface retention | Enhanced tumor uptake of dimer versus monomer (factor) (LNCaP tumor xenografts; LNCaP tumor): approximately 1.7 | Tumor-to-blood ratio (T/B) (LNCaP tumor xenografts; LNCaP tumor): 26.5 | Kidney uptake after co-injection of PMPA (LNCaP tumor xenografts; blocked with 2 mg/kg 2-PMPA): 8.29 ± 0.83 % ID/g | Spleen uptake after blocking (LNCaP tumor xenografts; blocked with 2 mg/kg 2-PMPA): 0.67 ± 0.11 % ID/g | Organ distribution, Blood (LNCaP tumor xenografts; [2]): 0.31 ± 0.03 % ID/g | Organ distribution, Brain (LNCaP tumor xenografts; [2]): 0.17 ± 0.01 % ID/g | Organ distribution, Heart (LNCaP tumor xenografts; [2]): 0.90 ± 0.12 % ID/g | Organ distribution, Intestine (LNCaP tumor xenografts; [2]): 0.57 ± 0.14 % ID/g | Organ distribution, Kidney (LNCaP tumor xenografts; [2]): 133.43 ± 18.88 % ID/g | Organ distribution, Liver (LNCaP tumor xenografts; [2]): 1.29 ± 0.11 % ID/g | Organ distribution, Lung (LNCaP tumor xenografts; [2]): 2.25 ± 0.24 % ID/g | Organ distribution, Muscle (LNCaP tumor xenografts; [2]): 0.90 ± 0.01 % ID/g | Organ distribution, Spleen (LNCaP tumor xenografts; [2]): 17.88 ± 4.53 % ID/g | Organ distribution, LNCaP tumor (LNCaP tumor xenografts; n = 5): 8.22 ± 1.78 % ID/g | Organ distribution, PC-3 tumor (PSMA− PC-3 tumor): 0.93 ± 0.53 % ID/g | Intact compound by HPLC analysis [1]: 99% | Changes in size exclusion chromatography (apo-transferrin): no changes in size exclusion chromatography were detected | Tumor time-activity behaviour in dynamic PET (LNCaP tumor xenograft): accumulation in the tumor
